{"source": "patent US9546164B2", "about": "(GENENTECH, INC., priority 2013, dated 2017)", "molecular_target": "hNav1.7 (Homo sapiens (Human), UniProt Q15858)", "sequence (Q15858 other isoform, or with tags, fused parts or gaps)": "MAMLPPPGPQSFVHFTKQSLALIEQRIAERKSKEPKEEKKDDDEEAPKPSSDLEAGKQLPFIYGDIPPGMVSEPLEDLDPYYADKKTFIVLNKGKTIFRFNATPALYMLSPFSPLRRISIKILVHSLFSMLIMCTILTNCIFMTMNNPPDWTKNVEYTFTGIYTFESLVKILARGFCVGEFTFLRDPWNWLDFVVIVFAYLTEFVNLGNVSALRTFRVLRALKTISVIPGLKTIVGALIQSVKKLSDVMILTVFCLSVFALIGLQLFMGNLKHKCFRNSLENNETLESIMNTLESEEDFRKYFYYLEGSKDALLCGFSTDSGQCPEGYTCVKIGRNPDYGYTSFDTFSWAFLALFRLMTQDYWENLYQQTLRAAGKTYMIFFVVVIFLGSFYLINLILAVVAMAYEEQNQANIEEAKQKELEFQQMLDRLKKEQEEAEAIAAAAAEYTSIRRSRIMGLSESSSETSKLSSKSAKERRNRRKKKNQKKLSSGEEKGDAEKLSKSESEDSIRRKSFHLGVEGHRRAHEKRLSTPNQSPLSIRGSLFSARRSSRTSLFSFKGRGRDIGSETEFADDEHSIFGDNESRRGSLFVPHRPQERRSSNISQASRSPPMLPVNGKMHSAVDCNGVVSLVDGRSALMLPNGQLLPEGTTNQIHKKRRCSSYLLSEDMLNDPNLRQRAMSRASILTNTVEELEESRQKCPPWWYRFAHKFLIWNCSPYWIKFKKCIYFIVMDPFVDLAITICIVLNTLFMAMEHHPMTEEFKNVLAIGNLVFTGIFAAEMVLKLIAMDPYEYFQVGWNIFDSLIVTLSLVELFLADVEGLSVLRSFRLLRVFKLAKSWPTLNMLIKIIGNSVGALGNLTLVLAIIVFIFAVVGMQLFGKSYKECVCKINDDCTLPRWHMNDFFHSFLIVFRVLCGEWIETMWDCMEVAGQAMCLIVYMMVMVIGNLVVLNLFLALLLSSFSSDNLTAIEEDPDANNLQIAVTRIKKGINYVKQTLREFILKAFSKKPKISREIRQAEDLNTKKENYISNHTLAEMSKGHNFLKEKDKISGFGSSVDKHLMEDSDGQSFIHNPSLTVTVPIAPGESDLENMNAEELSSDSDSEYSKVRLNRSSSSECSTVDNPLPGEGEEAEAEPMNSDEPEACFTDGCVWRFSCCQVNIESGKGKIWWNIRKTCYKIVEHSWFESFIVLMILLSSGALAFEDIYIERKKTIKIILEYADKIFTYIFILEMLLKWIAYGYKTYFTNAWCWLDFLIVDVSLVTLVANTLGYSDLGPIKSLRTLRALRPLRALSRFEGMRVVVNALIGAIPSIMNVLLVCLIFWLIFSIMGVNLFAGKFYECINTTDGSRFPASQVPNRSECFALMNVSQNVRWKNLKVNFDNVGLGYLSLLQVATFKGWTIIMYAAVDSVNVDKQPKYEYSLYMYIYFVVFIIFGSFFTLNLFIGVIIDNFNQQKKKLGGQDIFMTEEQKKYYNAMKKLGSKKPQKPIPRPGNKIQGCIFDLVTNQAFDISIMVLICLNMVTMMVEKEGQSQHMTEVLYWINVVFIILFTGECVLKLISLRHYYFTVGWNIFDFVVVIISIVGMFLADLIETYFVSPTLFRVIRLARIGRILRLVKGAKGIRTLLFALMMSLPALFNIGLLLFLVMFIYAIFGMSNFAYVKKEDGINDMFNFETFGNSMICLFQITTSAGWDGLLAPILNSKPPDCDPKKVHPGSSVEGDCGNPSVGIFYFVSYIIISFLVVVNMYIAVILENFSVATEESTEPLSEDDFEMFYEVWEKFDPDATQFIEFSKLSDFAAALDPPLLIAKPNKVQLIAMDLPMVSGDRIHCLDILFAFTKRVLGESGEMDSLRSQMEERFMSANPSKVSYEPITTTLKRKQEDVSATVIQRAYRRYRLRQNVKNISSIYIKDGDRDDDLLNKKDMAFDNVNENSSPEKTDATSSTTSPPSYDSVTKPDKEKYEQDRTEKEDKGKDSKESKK", "sequence (Q07699 19-218 partner)": "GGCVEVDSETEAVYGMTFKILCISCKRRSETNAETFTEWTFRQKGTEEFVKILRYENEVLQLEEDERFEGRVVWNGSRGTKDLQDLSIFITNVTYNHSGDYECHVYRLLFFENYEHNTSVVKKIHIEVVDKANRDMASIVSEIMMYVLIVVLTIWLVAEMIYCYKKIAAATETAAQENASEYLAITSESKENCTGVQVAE", "assay": "Tritiated sulfonamide competitive binding to membranes from cells expressing hNav1.7 and the β1 subunit;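 also: Filter-bound radioactivity counted by liquid scintillation, nonspecific binding defined with excess unlabelled ligand, IC50 fitted to percent inhibition of specific binding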", "key": {"[1]": {"settings": "read-out: Ligand Binding Assay, 100 pM [3H]compound, membranes with hNav1.7 and β1 subunit, 18 h, room temperature"}}, "note": "Structures can show the parent of a compound that is named as a salt. Where two headings read alike, the source gives them in different places."}
{"smiles": "CS(=O)(=O)NC(=O)c1cc(C2CC2)c(CN2CCC(Oc3cc(C(F)(F)F)c(Cl)cn3)CC2)cc1F", "note": "[Example 521, 4-((4-((5-chloro-4-(trifluoromethyl)pyridin-2-yl)oxy)piperidin-1-yl)methyl)-5-cyclopropyl-2-fluoro-N-(methylsulfonyl)benzamide, trifluoroacetic acid salt]", "values": [{"measurement": "IC50", "value": 7.9, "unit": "nM"}]}
{"smiles": "O=C(NS(=O)(=O)C1CC1)c1cc(C2CC2)c(CN2CCC(Oc3cc(C(F)(F)F)c(Cl)cn3)CC2)cc1F", "note": "[Example 522, 4-((4-((5-chloro-4-(trifluoromethyl)pyridin-2-yl)oxy)piperidin-1-yl)methyl)-5-cyclopropyl-N-(cyclopropylsulfonyl)-2-fluorobenzamide, trifluoroacetic acid salt]", "values": [{"measurement": "IC50", "value": 5.2, "unit": "nM"}]}
{"smiles": "CS(=O)(=O)NC(=O)c1cc(C2CC2)c(CN2CCC(Oc3ncc(C(F)(F)F)cc3Cl)CC2)cc1F", "note": "[Example 523, 4-((4-((3-chloro-5-(trifluoromethyl)pyridin-2-yl)oxy)piperidin-1-yl)methyl)-5-cyclopropyl-2-fluoro-N-(methylsulfonyl)benzamide, trifluoroacetic acid salt]", "values": [{"measurement": "IC50", "value": 5.8, "unit": "nM"}]}
{"smiles": "O=C(NS(=O)(=O)C1CC1)c1cc(C2CC2)c(CN2CCC(Oc3ncc(C(F)(F)F)cc3Cl)CC2)cc1F", "note": "[Example 524, 4-((4-((3-chloro-5-(trifluoromethyl)pyridin-2-yl)oxy)piperidin-1-yl)methyl)-5-cyclopropyl-N-(cyclopropylsulfonyl)-2-fluorobenzamide, trifluoroacetic acid salt]", "values": [{"measurement": "IC50", "value": 11.4, "unit": "nM"}]}
{"smiles": "O=C(NS(=O)(=O)C1CC1)c1cc(C2CC2)c(CN2CCN(S(=O)(=O)c3cc(Cl)cc(Cl)c3)CC2)cc1F", "note": "[Example 527, 5-cyclopropyl-N-(cyclopropylsulfonyl)-4-((4-((3,5-dichlorophenyl)sulfonyl)piperazin-1-yl)methyl)-2-fluorobenzamide, trifluoroacetic acid salt]", "values": [{"measurement": "IC50", "value": 9.9, "unit": "nM"}]}
{"smiles": "CC(C)(c1cccc(Cl)c1)N1CCC[C@@H](Oc2cc(F)c(C(=O)NS(C)(=O)=O)cc2C2CC2)C1", "note": "[Example 529, (R)-4-((1-(2-(3-chlorophenyl)propan-2-yl)piperidin-3-yl)oxy)-5-cyclopropyl-2-fluoro-N-(methylsulfonyl)benzamide, trifluoroacetic acid salt]", "values": [{"measurement": "IC50", "value": 2.4, "unit": "nM"}]}
{"smiles": "CC(C)(c1cccc(Cl)c1)N1CCC[C@@H](Oc2cc(F)c(C(=O)NS(=O)(=O)C3CC3)cc2C2CC2)C1", "note": "[Example 530, (R)-4-((1-(2-(3-chlorophenyl)propan-2-yl)piperidin-3-yl)oxy)-5-cyclopropyl-N-(cyclopropylsulfonyl)-2-fluorobenzamide, trifluoroacetic acid salt]", "values": [{"measurement": "IC50", "value": 2.3, "unit": "nM"}]}
{"smiles": "O=C(NS(=O)(=O)C1CC1)c1cc(C2CC2)c(CN2CCC(Sc3cc(Cl)cc(Cl)c3)CC2)cc1F", "note": "[Example 531, 5-cyclopropyl-N-(cyclopropylsulfonyl)-4-((4-((3,5-dichlorophenyl)thio)piperidin-1-yl)methyl)-2-fluorobenzamide, trifluoroacetic acid salt]", "values": [{"measurement": "IC50", "value": 2.2, "unit": "nM"}]}
{"smiles": "CS(=O)(=O)NC(=O)c1cc(C2CC2)c(CN2CCC(S(=O)(=O)c3cc(Cl)cc(Cl)c3)CC2)cc1F", "note": "[Example 532, 5-cyclopropyl-4-((4-((3,5-dichlorophenyl)sulfonyl)piperidin-1-yl)methyl)-2-fluoro-N-(methylsulfonyl)benzamide, trifluoroacetic acid salt]", "values": [{"measurement": "IC50", "value": 220, "unit": "nM"}]}
{"smiles": "O=C(NS(=O)(=O)C1CC1)c1cc(C2CC2)c(CN2CCC(S(=O)(=O)c3cc(Cl)cc(Cl)c3)CC2)cc1F", "note": "[Example 533, 5-cyclopropyl-N-(cyclopropylsulfonyl)-4-((4-((3,5-dichlorophenyl)sulfonyl)piperidin-1-yl)methyl)-2-fluorobenzamide, trifluoroacetic acid salt]", "values": [{"measurement": "IC50", "value": 127, "unit": "nM"}]}
{"smiles": "CS(=O)(=O)NC(=O)c1cc(C2CC2)c(CN2CCC([S+]([O-])c3cc(Cl)cc(Cl)c3)CC2)cc1F", "note": "(stereo not shown) [Example 534, 5-cyclopropyl-4-((4-((3,5-dichlorophenyl)sulfinyl)piperidin-1-yl)methyl)-2-fluoro-N-(methylsulfonyl)benzamide, trifluoroacetic acid salt]", "values": [{"measurement": "IC50", "value": 879, "unit": "nM"}]}
{"smiles": "O=C(NS(=O)(=O)C1CC1)c1cc(C2CC2)c(CN2CCC([S+]([O-])c3cc(Cl)cc(Cl)c3)CC2)cc1F", "note": "(stereo not shown) [Example 535, 5-cyclopropyl-N-(cyclopropylsulfonyl)-4-((4-((3,5-dichlorophenyl)sulfinyl)piperidin-1-yl)methyl)-2-fluorobenzamide, trifluoroacetic acid salt]", "values": [{"measurement": "IC50", "value": 720, "unit": "nM"}]}
{"smiles": "CS(=O)(=O)NC(=O)c1cc(C2CC2)c(CN2CCC(Oc3cc(C(F)(F)F)cc(Cl)c3F)CC2)cc1F", "note": "[Example 536, 4-((4-(3-Chloro-2-fluoro-5-(trifluoromethyl)phenoxy)piperidin-1-yl)methyl)-5-cyclopropyl-2-fluoro-N-(methylsulfonyl)benzamide, trifluoroacetic acid salt]", "values": [{"measurement": "IC50", "value": 5, "unit": "nM"}]}
{"smiles": "O=C(NS(=O)(=O)C1CC1)c1cc(C2CC2)c(CN2CCC(Oc3cc(C(F)(F)F)cc(Cl)c3F)CC2)cc1F", "note": "[Example 537, 4-((4-(3-chloro-2-fluoro-5-(trifluoromethyl)phenoxy)piperidin-1-yl)methyl)-5-cyclopropyl-N-(cyclopropylsulfonyl)-2-fluorobenzamide, trifluoroacetic acid salt]", "values": [{"measurement": "IC50", "value": 5.7, "unit": "nM"}]}
{"smiles": "CC(C)(C)N1CCC[C@@H](Oc2cc(F)c(C(=O)NS(C)(=O)=O)cc2C2CC2)C1", "note": "[Example 538, (R)-4-((1-(tert-butyl)piperidin-3-yl)oxy)-5-cyclopropyl-2-fluoro-N-(methylsulfonyl)benzamide]", "values": [{"measurement": "IC50", "value": 7120, "unit": "nM"}]}
{"smiles": "CC(C)(C)N1CCC[C@@H](Oc2cc(F)c(C(=O)NS(=O)(=O)C3CC3)cc2C2CC2)C1", "note": "[Example 539, (R)-4-((1-(tert-butyl)piperidin-3-yl)oxy)-5-cyclopropyl-N-(cyclopropylsulfonyl)-2-fluorobenzamide]", "values": [{"measurement": "IC50", "value": 2280, "unit": "nM"}]}
{"smiles": "CC(c1cc(Cl)cc(Cl)c1)N1CCN(Cc2cc(F)c(C(=O)NS(C)(=O)=O)cc2C2CC2)CC1", "note": "(stereo not shown) [Example 540]", "values": [{"measurement": "IC50", "setting": "[1]", "value": 7.8, "unit": "nM"}]}
{"smiles": "CC(c1cc(Cl)cc(Cl)c1)N1CCN(Cc2cc(F)c(C(=O)NS(=O)(=O)C3CC3)cc2C2CC2)CC1", "note": "(stereo not shown) [Example 541, 5-cyclopropyl-N-(cyclopropylsulfonyl)-4-((4-(1-(3,5-dichlorophenyl)ethyl)piperazin-1-yl)methyl)-2-fluorobenzamide]", "values": [{"measurement": "IC50", "value": 5.9, "unit": "nM"}]}
{"smiles": "CS(=O)(=O)NC(=O)c1cc(C2CC2)c(OCC2CN(c3cc(C(F)(F)F)c(Cl)cn3)C2)cc1F", "note": "[Example 542, 4-((1-(5-chloro-4-(trifluoromethyl)pyridin-2-yl)azetidin-3-yl)methoxy)-5-cyclopropyl-2-fluoro-N-(methylsulfonyl)benzamide]", "values": [{"measurement": "IC50", "setting": "[1]", "value": 27, "unit": "nM"}]}
{"smiles": "O=C(NS(=O)(=O)C1CC1)c1cc(C2CC2)c(OCC2CN(c3cc(C(F)(F)F)c(Cl)cn3)C2)cc1F", "note": "[Example 543, 4-((1-(5-chloro-4-(trifluoromethyl)pyridin-2-yl)azetidin-3-yl)methoxy)-5-cyclopropyl-N-(cyclopropylsulfonyl)-2-fluorobenzamide]", "values": [{"measurement": "IC50", "setting": "[1]", "value": 11.7, "unit": "nM"}]}
{"smiles": "CS(=O)(=O)NC(=O)c1cc(C2CC2)c(CN2CC(Oc3cc(Cl)cc(Cl)c3)C2)cc1F", "note": "[Example 544, 5-cyclopropyl-4-((3-(3,5-dichlorophenoxy)azetidin-1-yl)methyl)-2-fluoro-N-(methylsulfonyl)benzamide, trifluoroacetic acid salt]", "values": [{"measurement": "IC50", "value": 15.3, "unit": "nM"}]}
{"smiles": "O=C(NS(=O)(=O)C1CC1)c1cc(C2CC2)c(CN2CC(Oc3cc(Cl)cc(Cl)c3)C2)cc1F", "note": "[Example 545, 5-cyclopropyl-N-(cyclopropylsulfonyl)-4-((3-(3,5-dichlorophenoxy)azetidin-1-yl)methyl)-2-fluorobenzamide, trifluoroacetic acid salt]", "values": [{"measurement": "IC50", "value": 3.4, "unit": "nM"}]}
{"smiles": "CS(=O)(=O)NC(=O)c1cc(C2CC2)c(CN2CCC(Oc3ccc(Cl)cc3Cl)CC2)cc1F", "note": "[Example 546, 5-cyclopropyl-4-((4-(2,4-dichlorophenoxy)piperidin-1-yl)methyl)-2-fluoro-N-(methylsulfonyl)benzamide, trifluoroacetic acid salt]", "values": [{"measurement": "IC50", "value": 11.9, "unit": "nM"}]}
{"smiles": "O=C(NS(=O)(=O)C1CC1)c1cc(C2CC2)c(CN2CCC(Oc3ccc(Cl)cc3Cl)CC2)cc1F", "note": "[Example 547, 5-cyclopropyl-N-(cyclopropylsulfonyl)-4-((4-(2,4-dichlorophenoxy)piperidin-1-yl)methyl)-2-fluorobenzamide, trifluoroacetic acid salt]", "values": [{"measurement": "IC50", "value": 8.2, "unit": "nM"}]}
{"smiles": "CS(=O)(=O)NC(=O)c1cc(C2CC2)c(CN2CCC(Oc3cc(Cl)cc(OC(F)(F)F)c3)CC2)cc1F", "note": "[Example 548, 4-((4-(3-chloro-5-(trifluoromethoxy)phenoxy)piperidin-1-yl)methyl)-5-cyclopropyl-2-fluoro-N-(methylsulfonyl)benzamide, trifluoroacetic acid salt]", "values": [{"measurement": "IC50", "value": 3.7, "unit": "nM"}]}
{"smiles": "O=C(NS(=O)(=O)C1CC1)c1cc(C2CC2)c(CN2CCC(Oc3cc(Cl)cc(OC(F)(F)F)c3)CC2)cc1F", "note": "[Example 549, 4-((4-(3-chloro-5-(trifluoromethoxy)phenoxy)piperidin-1-yl)methyl)-5-cyclopropyl-N-(cyclopropylsulfonyl)-2-fluorobenzamide, trifluoroacetic acid salt]", "values": [{"measurement": "IC50", "value": 4.4, "unit": "nM"}]}
{"smiles": "CS(=O)(=O)NC(=O)c1cc(C2CC2)c(CN2[C@@H]3CC[C@H]2C[C@@H](Oc2cc(C(F)(F)F)c(Cl)cn2)C3)cc1F", "note": "[Example 550, 4-(((1R,3r,5S)-3-((5-chloro-4-(trifluoromethyl)pyridin-2-yl)oxy)-8-azabicyclo[3.2.1]octan-8-yl)methyl)-5-cyclopropyl-2-fluoro-N-(methylsulfonyl)benzamide, trifluoroacetic acid salt]", "values": [{"measurement": "IC50", "setting": "[1]", "value": 13.6, "unit": "nM"}]}
{"smiles": "O=C(NS(=O)(=O)C1CC1)c1cc(C2CC2)c(CN2[C@@H]3CC[C@H]2C[C@@H](Oc2cc(C(F)(F)F)c(Cl)cn2)C3)cc1F", "note": "[Example 551, 4-(((1R,3r,5S)-3-((5-chloro-4-(trifluoromethyl)pyridin-2-yl)oxy)-8-azabicyclo[3.2.1]octan-8-yl)methyl)-5-cyclopropyl-N-(cyclopropylsulfonyl)-2-fluorobenzamide, trifluoroacetic acid salt]", "values": [{"measurement": "IC50", "setting": "[1]", "value": 7.5, "unit": "nM"}]}
